The values below come from patent US20110195845A1, “Constructs for Expressing Herbicide Tolerance Genes, Related Plants, and Related Trait Combinations” (Dow AgroSciences LLC, priority 2008, published 2011).

Assay [1] has as its system E. coli BL21-Star (DE3). The assay is described as follows: Bacterial strain response to glufosinate on minimal media. To be noted: for bacterial growth on minimal media: 24 hrs @ 37 C. Also on record: key to bacterial growth on minimal media: +++ = Heavy Lawn Growth; ++ = Light lawn growth; + = patchy lawn growth; −− = No Growth. Type of assay: cell-based, Escherichia coli. On the procedure: Selected cell lines of Escherichia coli and Agrobacterium tumefaciens were inoculated on minimal media containing incrementally increasing concentrations of Glufosinate (BASTA). The cell lines; BL21-Star (DE3), Top10, DH5α, Agrobacterium tumefaciens C58, and Agrobacterium tumefaciens LBA4404s were initially grown up on complex media. The Escherichia coli strains were grown in LB and the Agrobacterium tumefaciens strains were grown in YEP. Five microliters of bacterial culture was inoculated and dispersed evenly onto minimal media plates containing various concentrations of glufosinate. The concentrations consisted of 0 μg/ml, 250 μg/ml, 500 μg/ml, 1000 μg/ml, 2000 μg/ml, and 4000 μg/ml of BASTA. In addition, the bacterial strains were inoculated onto a plate of complex media as a control—Agrobacterium tumefaciens strains were inoculated on YEP agar plates, and Escherichia coli strains were inoculated on LB agar plates. The plates containing the Escherichia coli strains were incubated at 37° C. for 24 hours. The plates containing the Agrobacterium tumefaciens strains were incubate at 25° C. for 48 hours. […] Table 7 illustrates the capability of the various strains to grow on minimal media containing glufosinate.

The test system of assay [2] is Wildtype corn. Briefly: Leaf paint with glufosinate in corn. To be noted: for % Injury: 2 WAT. Type of assay: in vivo. On the procedure: T0 DSM-2 (v2) plants were painted with a rundown of glufosinate herbicide. Four siblings from each of 15 T0 events were tested, and 4 leaves on each individual plant received a rundown of glufosinate at approximately V8 stage. Rundown treatments were randomized for each rate allowing for variation of treatment location on individual leaves. For corn, 0.25% v/v glufosinate is the minimum effective dose to distinguish sensitive plants from ones with meaningful levels of resistance. Elevated rates were also applied to determine relative levels of resistance (0.5%, 1.0%, and 2.0% v/v). Glufosinate treatments were applied using cotton tipped applicators to a treatment area of approximately 2.5 cm in diameter.
Table 11 compares the response of DSM-2 (v2) and control genes to impart glufosinate resistance to corn T0 transformants. Response is presented in terms of % visual injury 2 WAT. […] Since each T0 is an independent transformation event, one can expect significant variation of individual T0 responses within a given rate. An arithmetic mean and standard deviation is presented for each treatment. Untransformed wildtype corn served as a glufosinate sensitive control. The DSM-2 (v2) gene imparted herbicide resistance to individual T0 corn plants. Within a given treatment, the level of plant response varied greatly and can be attributed to the fact each plant represents an independent transformation event.

Each structure is given as a SMILES string.

As for `CP(=O)(O)CCC(N)C(=O)O` (stereo not drawn) [glufosinate], the “bacterial growth on minimal media” value in assay [1] (250 μg/ml BASTA), in assay [1] (500 μg/ml BASTA), in assay [1] (1000 μg/ml BASTA), in assay [1] (2000 μg/ml BASTA) and in assay [1] (4000 μg/ml BASTA) was “−−” throughout. In addition, the “concentration in minimal media at which the cell line was inhibited” value in assay [1] (minimal media) was determined as 100 µg/mL. In addition, the “inhibition of strain by glufosinate” value in assay [1] (minimal media, 250-4000 μg/ml BASTA) is listed as “substantially inhibited”. Further, the “% Injury” value in assay [2] (0.25% v/v glufosinate leaf paint) stood at 33%; in assay [2] (0.5% v/v glufosinate leaf paint) it was 50%; in assay [2] (1% v/v glufosinate leaf paint) it was 84%; in assay [2] (2% v/v glufosinate leaf paint), 90%. Also, the “minimum effective dose to distinguish sensitive plants from ones with meaningful levels of resistance” value in assay [2] (corn, leaf paint) came to 0.25 % v/v.
